Measured values as given in patent publication US20220339144A1, “PYRIDINYL INDOLE COMPOUNDS AND METHODS OF USE THEREOF” (Chinook Therapeutics Canada, Inc., priority 2021, published 2022).
pEC50: −log10 of the molar value.

Columns and labels:
[1] = system: Wistar Han rats; conditions: 14 days of treatment in Wistar Han rats; cited from earlier work
[2] = system: ZSF1 rat model of diabetic nephropathy; conditions: cited from earlier work
[3] = system: Pkd1 knockout mouse model of ADPKD; conditions: orthologous Pkd1 knockout mouse model of ADPKD; cited from earlier work
[4] = target: T1, AMPKα1β1γ1 (Homo sapiens, UniProt Q13131+Q9Y478); assay: AMPKα1β1γ1 biochemical assay (LabChip EZ Reader mobility shift); conditions: EC50 of Table 1; activation, normalized to DMSO vehicle control; read-out: Human AMPK AMPKα1β1γ1 EC50
T1 construct: purchased Carna Biosciences 02-113
T1 sequence (Q13131 whole entry): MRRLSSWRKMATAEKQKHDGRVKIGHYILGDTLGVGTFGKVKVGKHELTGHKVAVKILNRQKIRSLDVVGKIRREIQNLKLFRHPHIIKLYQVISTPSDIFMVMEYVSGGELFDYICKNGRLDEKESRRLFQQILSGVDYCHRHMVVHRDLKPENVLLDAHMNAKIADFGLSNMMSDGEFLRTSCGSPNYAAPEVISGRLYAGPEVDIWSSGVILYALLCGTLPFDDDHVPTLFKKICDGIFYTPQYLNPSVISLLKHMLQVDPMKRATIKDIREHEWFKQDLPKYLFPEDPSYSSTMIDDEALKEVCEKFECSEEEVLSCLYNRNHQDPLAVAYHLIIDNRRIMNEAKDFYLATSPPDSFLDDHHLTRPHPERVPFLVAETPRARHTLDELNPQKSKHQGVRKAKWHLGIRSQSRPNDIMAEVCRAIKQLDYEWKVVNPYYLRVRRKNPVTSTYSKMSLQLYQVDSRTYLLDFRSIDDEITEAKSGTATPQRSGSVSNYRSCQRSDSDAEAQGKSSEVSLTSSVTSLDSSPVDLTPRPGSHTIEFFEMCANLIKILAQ
T1 sequence (Q9Y478 whole entry): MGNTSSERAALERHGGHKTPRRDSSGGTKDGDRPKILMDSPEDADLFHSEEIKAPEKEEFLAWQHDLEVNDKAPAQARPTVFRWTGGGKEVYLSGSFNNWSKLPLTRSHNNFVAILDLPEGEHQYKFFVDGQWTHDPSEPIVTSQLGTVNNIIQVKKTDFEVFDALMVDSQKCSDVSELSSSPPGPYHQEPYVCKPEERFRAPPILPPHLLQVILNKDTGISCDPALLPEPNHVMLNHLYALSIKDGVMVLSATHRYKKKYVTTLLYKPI
T1 sequence (P54619 whole entry partner): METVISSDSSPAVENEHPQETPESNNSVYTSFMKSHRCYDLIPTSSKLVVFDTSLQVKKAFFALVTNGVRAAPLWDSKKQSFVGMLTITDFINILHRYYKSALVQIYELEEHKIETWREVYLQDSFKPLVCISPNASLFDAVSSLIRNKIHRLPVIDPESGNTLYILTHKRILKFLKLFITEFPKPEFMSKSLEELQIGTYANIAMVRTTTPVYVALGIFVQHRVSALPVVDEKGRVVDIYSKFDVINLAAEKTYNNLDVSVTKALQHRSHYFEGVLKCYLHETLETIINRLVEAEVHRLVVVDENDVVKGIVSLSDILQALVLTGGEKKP
Procedure: (§1) Compounds disclosed herein were evaluated for their ability to activate AMPKα1β1γ1 by measuring phosphorylation of a commercially available fluorescent AMPK substrate using the LabChip® EZ Reader microfluidic system that is based on a mobility shift principle in which unphosphorylated fluorescent substrates may be separated and distinguished from phosphorylated fluorescent substrates due to the difference in negative charge. Briefly, compounds were serial diluted 3-fold in 100% DMSO for an 11-point dose-response curve. A 20 nL aliquot of diluted compound was transferred into a 384-well plate using a liquid handler (Labcyte Inc., Echo 550). A pre-prepared solution (10 mM MgCl2, 0.01% Brij-35, 2 mM DTT, 0.05% BSA, 1 mM EGTA, and 50 mM HEPES pH 7.5) was combined with 0.83 nM AMPKα1β1γ1 (Carna Biosciences, 02-113). The enzyme solution (15 μL) was aliquoted into each well and the plate was incubated at 24° C. for 30 min. A second stock solution (10 mM MgCl2, 0.01% Brij-35, 2 mM DTT, 0.05% BSA, 1 mM EGTA, 800 μM ATP, and 50 mM HEPES pH 7.5) was combined with 6 μM fluorescent peptide substrate for AMPKal (Perkin Elmer, 760351). The kinase reaction was initiated by adding 5 μL of the second solution containing substrate and ATP to each well. The plate was incubated at 24° C. for 90 minutes and 75 μL of 0.5 M EDTA was added to terminate the reaction. The plates were analyzed using a LabChip® EZ Reader (Perkin Elmer, 122919) and the effective concentration to achieve 50% of the maximal activity (EC50) was calculated after normalizing to the DMSO vehicle control.

[5] = target: T2, AMPKα1β2γ1 (Homo sapiens, UniProt O43741+Q13131); assay: AMPKα1β2γ1 biochemical assay (LabChip EZ Reader mobility shift); conditions: second EC50 column of Table 1 (head repeats α1β1γ1; text says α1β2γ1 isoform); read-out: Human AMPK AMPKα1β1γ1 EC50
T2 construct: purchased Carna Biosciences (printed only as 'Biosciences') 02-147
T2 sequence (Q13131 whole entry, canonical isoform): as the sequence (Q13131 whole entry) above
T2 sequence (O43741 whole entry, canonical isoform): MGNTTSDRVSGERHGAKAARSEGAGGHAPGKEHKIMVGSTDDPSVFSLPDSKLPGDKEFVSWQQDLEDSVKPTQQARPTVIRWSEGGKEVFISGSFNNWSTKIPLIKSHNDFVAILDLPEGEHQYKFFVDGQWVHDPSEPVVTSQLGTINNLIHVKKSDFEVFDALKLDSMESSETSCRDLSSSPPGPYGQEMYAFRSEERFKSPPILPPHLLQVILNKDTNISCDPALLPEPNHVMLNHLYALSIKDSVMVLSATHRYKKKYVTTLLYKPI
T2 sequence (P54619 whole entry partner, canonical isoform): as the sequence (P54619 whole entry partner) above
Procedure: as §1
The same procedure above was also used to measure activation of the AMPKα1β2γ1 isoform, replacing AMPKα1β1γ1 with AMPKα1β2γ1 Biosciences 02-147).

[6] = system: orthologous mouse model of ADPKD; conditions: cited from earlier work
[7] = system: miniature pig model of ADPKD; conditions: cited from earlier work
[8] = system: high fat diet mice; conditions: cited from earlier work
[9] = ZSF1 progressive rat model of diabetic nephropathy

| Compound | pEC50 [4] | pEC50 [5] | other results |
| --- | --- | --- | --- |
| MK-8722 |  |  | cardiac glycogen levels [1]: increased cardiac glycogen levels; cardiac hypertrophy [1]: significant cardiac hypertrophy; proteinuria, glomerular filtration rate, and kidney fibrosis [2, 9]: significant improvements; renal protection [2, 9]: renal protective |
| O=C(Oc1ccccc1C(=O)O)c1ccccc1O [salsalate] |  |  | cystic disease severity [3]: attenuate cystic disease severity |
| O=C(O)c1c[nH]c2cc(Cl)c(-c3ccc(C4(O)CCC4)cc3)cc12 [PF-06409577] |  |  | proteinuria ([2]; ZSF1 rat model of diabetic nephropathy): reduced proteinuria |
| COc1nc(N2CC3(CN(C(=O)OC(C)(C)C)C3)C2)ccc1-c1cc2c(C(=O)O)c[nH]c2cc1Cl [Example 6, 5-(6-(6-(tert-butoxycarbonyl)-2,6-diazaspiro[3.3]heptan-2-yl)-2-methoxypyridin-3-yl)-6-chloro-1H-indole-3-carboxylic acid] | 7.00 to 7.30 | < 5.00 |  |
| COc1nc(N2CC3(CCNC3=O)C2)ccc1-c1cc2c(C(=O)O)c[nH]c2cc1Cl [Example 18, 6-chloro-5-(2-methoxy-6-(5-oxo-2,6-diazaspiro[3.4]octan-2-yl)pyridin-3-yl)-1H-indole-3-carboxylic acid] | ≥ 7.30 | < 5.00 |  |
| COC[C@@H]1[C@H]2CN(c3ccc(-c4cc5c(C(=O)O)c[nH]c5cc4Cl)c(OC)n3)C[C@@H]12 [Example 9, 6-chloro-5-(2-methoxy-6-((trans)-6-(methoxymethyl)-3-azabicyclo[3.1.0]hexan-3-yl)pyridin-3-yl)-1H-indole-3-carboxylic acid] | ≥ 7.30 | < 5.00 |  |
| CN(C)C(=N)N=C(N)N [Metformin] |  |  | cystic kidney disease [6]: attenuate cystic kidney disease; cystic kidney disease [7]: attenuate cystic kidney disease; high fat diet-induced metabolic derangement and renal injury [8]: reduce high fat diet-induced metabolic derangement and renal injury |
| COc1nc(N2CC3(CC(=O)N(C)C3)C2)ccc1-c1cc2c(C(=O)O)c[nH]c2cc1Cl [Example 22, 6-chloro-5-(2-methoxy-6-(6-methyl-7-oxo-2,6-diazaspiro[3.4]octan-2-yl)pyridin-3-yl)-1H-indole-3-carboxylic acid] | ≥ 7.30 | < 5.00 |  |
| COc1nc(N2CC3(CCC3O)C2)ccc1-c1cc2c(C(=O)O)c[nH]c2cc1Cl (racemic) [Example 25, racemic-6-chloro-5-(6-(5-hydroxy-2-azaspiro[3.3]heptan-2-yl)-2-methoxypyridin-3-yl)-1H-indole-3-carboxylic acid] | 7.00 to 7.30 | < 5.00 |  |
| COc1nc(N2CC3(COC3)C2)ccc1-c1cc2c(C(=O)O)c[nH]c2cc1Cl [Example 1, 6-chloro-5-(2-methoxy-6-(2-oxa-6-azaspiro[3.3]heptan-6-yl)pyridin-3-yl)-1H-indole-3-carboxylic Acid] | ≥ 7.30 | < 5.00 |  |

Second part, led by results:

| pEC50 [4] | pEC50 [5] | Compound | other results |
| --- | --- | --- | --- |
| ≥ 7.30 | < 5.00 | COc1nc(N2C[C@H]3CCO[C@H]3C2)ccc1-c1cc2c(C(=O)O)c[nH]c2cc1Cl (racemic) [Example 28, racemic-6-chloro-5-(6-((cis)-hexahydro-5H-furo[2,3-c]pyrrol-5-yl)-2-methoxypyridin-3-yl)-1H-indole-3-carboxylic acid] |  |
| ≥ 7.30 | < 5.00 | COc1nc(N2CC3(COC3)C2)ccc1-c1c(F)cc2[nH]cc(C(=O)O)c2c1F [Example 41, 4,6-difluoro-5-(2-methoxy-6-(2-oxa-6-azaspiro[3.3]heptan-6-yl)pyridin-3-yl)-1H-indole-3-carboxylic acid] |  |
| ≥ 7.30 | 5.00 to 6.60 | COc1nc(N2C[C@@H]3[C@@H](CO)[C@@H]3C2)ccc1-c1cc2c(C(=O)O)c[nH]c2cc1Cl [Example 3, 6-chloro-5-(6-((trans)-6-(hydroxymethyl)-3-azabicyclo [3.1.0]hexan-3-yl)-2-methoxypyridin-3-yl)-1H-indole-3-carboxylic acid] |  |
| ≥ 7.30 | 5.00 to 6.60 | COc1nc(N2C[C@@H]3COC[C@H]3C2)ccc1-c1cc2c(C(=O)O)c[nH]c2cc1Cl [Example 33, 6-chloro-5-(2-methoxy-6-((3aR, 6aR)-tetrahydro-1H-furo[3,4-c]pyrrol-5(3H)-yl)pyridin-3-yl)-1H-indole-3-carboxylic acid] |  |
| ≥ 7.30 | 5.00 to 6.60 | COc1nc(N2C[C@@H]3[C@@H](O)[C@@H]3C2)ccc1-c1cc2c(C(=O)O)c[nH]c2cc1Cl [Example 24, 6-chloro-5-(6-((trans)-6-hydroxy-3-azabicyclo[3.1.0]hexan-3-yl)-2-methoxypyridin-3-yl)-1H-indole-3-carboxylic acid] |  |
| ≥ 7.30 | < 5.00 | COc1nc(N2CC3(CNC(=O)C3)C2)ccc1-c1cc2c(C(=O)O)c[nH]c2cc1Cl [Example 19, 6-chloro-5-(2-methoxy-6-(7-oxo-2,6-diazaspiro[3.4]octan-2-yl)pyridin-3-yl)-1H-indole-3-carboxylic acid] |  |
| ≥ 7.30 | < 5.00 | COc1nc(N2CC3(CCOC3)C2)ccc1-c1cc2c(C(=O)O)c[nH]c2cc1Cl [Example 21, 6-chloro-5-(2-methoxy-6-(6-oxa-2-azaspiro[3.4]octan-2-yl)pyridin-3-yl)-1H-indole-3-carboxylic acid] |  |
| ≥ 7.30 | < 5.00 | COc1nc(N2CC3(CC(N)C3)C2)ccc1-c1cc2c(C(=O)O)c[nH]c2cc1Cl [Example 10, 5-(6-(6-amino-2-azaspiro[3.3]heptan-2-yl)-2-methoxypyridin-3-yl)-6-chloro-1H-indole-3-carboxylic Acid] |  |
